Assay results from patent US6177542A, “Integrin-binding peptides” (The Burnham Institute, priority 1997, dated 2001).
Positions of bridges follow the written chain, without caps; N, C: chain ends. Residues, ends and D or L forms follow the SMILES beside them. No end group written: not given here.

How the values were obtained:
[1] = molecular target: T1, α5β1 integrin (Homo sapiens, UniProt P05556+P08648); test: phage attachment assay: inhibition of CRGDCL-phage binding to α5β1 integrin; details: FIG. 1
T1 construct: The α5β1 and αvβ3 integrins were isolated from human placenta; from tissue; host or cells: human placenta
T1 sequence (P08648 42-894 limits assumed): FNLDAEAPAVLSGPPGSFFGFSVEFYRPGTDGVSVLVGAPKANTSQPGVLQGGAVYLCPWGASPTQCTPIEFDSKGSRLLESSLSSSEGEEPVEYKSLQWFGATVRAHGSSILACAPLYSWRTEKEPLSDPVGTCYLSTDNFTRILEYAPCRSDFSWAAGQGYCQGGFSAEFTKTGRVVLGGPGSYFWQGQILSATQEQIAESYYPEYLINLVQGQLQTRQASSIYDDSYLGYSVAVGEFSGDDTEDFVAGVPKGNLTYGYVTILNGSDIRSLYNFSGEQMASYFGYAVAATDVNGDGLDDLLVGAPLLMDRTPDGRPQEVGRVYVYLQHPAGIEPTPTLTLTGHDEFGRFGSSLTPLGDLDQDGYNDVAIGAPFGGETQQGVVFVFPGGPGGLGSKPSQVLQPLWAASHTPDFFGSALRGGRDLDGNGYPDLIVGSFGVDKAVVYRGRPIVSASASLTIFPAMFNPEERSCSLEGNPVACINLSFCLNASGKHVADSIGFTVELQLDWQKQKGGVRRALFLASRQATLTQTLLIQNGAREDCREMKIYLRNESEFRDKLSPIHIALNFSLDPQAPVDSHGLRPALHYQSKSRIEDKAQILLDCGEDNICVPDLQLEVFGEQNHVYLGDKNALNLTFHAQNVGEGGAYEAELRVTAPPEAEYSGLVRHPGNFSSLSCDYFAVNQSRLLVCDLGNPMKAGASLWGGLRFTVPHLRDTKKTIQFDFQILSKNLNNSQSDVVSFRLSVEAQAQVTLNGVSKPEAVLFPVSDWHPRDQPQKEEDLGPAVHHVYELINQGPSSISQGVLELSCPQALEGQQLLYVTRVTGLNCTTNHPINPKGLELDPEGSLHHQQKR
T1 sequence (P08648 895-1049 limits assumed): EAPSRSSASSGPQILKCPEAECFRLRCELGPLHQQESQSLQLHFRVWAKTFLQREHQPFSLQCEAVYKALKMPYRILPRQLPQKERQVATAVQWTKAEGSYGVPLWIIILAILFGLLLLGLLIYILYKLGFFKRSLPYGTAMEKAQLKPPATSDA
T1 sequence (P05556 21-798): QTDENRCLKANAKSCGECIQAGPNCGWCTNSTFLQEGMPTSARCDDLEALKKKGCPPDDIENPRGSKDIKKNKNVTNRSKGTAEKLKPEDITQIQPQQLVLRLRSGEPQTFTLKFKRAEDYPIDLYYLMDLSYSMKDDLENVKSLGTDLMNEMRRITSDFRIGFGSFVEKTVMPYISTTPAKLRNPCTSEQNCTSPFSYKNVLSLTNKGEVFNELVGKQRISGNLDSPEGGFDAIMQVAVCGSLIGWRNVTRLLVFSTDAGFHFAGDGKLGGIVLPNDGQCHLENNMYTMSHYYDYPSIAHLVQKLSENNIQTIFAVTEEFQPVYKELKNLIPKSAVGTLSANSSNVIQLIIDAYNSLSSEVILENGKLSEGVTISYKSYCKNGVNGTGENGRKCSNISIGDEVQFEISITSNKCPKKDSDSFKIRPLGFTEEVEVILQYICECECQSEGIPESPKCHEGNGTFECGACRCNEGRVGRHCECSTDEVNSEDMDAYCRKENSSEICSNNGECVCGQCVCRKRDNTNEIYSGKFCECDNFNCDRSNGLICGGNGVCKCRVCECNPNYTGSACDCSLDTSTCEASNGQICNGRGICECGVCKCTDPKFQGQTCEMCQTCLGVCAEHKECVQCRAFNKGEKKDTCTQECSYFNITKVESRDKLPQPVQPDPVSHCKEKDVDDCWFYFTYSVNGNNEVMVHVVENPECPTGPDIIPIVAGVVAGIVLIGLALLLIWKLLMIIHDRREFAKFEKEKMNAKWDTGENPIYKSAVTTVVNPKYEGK
Procedure: (§1) The α5β1 and αvβ3 integrins were isolated from human placenta as described in Pytela et al., PNAS USA.
CRGDCL-displaying phage were incubated for 1 hour in the presence of various concentrations of the peptides to be tested in microtiter wells coated with the α5β1 integrin. […] Specific binding was quantitated by added K9lkan bacteria directly to the wells and growing the bacteria overnight at room temperature in the presence of tetracycline as described in Smith and Scott, Meth. Enzymol. […] The data represent means from duplicate wells.

[2] = molecular target: T1, α5β1 integrin; test: inhibition of ELRGDGW-containing phage binding to α5β1 integrin; details: 1 hour at room temperature
Procedure: Phage carrying the insert ELRGDGW (SEQ ID NO 24) were added together with various concentrations of the cyclic peptide […] (SEQ ID NO:03) into microliter wells coated with the α5β1 integrin and incubated for 1 hour at room temperature. The 15 phage which remained bound to the wells were quantitated by growing the K9lkan bacteria in the wells overnight at room temperature in the presence of tetracycline. The absorbance that indicates the growth of bacteria infected with phage was measured at 600 nm with an ELISA reader.

[3] = molecular target: T2, αvβ3 integrin (Homo sapiens, UniProt P05106+P06756); test: inhibition of CRGDCL-phage binding to αvβ3; details: means from duplicate wells
T2 construct: The α5β1 and αvβ3 integrins were isolated from human placenta; from tissue; host or cells: human placenta
T2 sequence (P06756 31-889 limits assumed): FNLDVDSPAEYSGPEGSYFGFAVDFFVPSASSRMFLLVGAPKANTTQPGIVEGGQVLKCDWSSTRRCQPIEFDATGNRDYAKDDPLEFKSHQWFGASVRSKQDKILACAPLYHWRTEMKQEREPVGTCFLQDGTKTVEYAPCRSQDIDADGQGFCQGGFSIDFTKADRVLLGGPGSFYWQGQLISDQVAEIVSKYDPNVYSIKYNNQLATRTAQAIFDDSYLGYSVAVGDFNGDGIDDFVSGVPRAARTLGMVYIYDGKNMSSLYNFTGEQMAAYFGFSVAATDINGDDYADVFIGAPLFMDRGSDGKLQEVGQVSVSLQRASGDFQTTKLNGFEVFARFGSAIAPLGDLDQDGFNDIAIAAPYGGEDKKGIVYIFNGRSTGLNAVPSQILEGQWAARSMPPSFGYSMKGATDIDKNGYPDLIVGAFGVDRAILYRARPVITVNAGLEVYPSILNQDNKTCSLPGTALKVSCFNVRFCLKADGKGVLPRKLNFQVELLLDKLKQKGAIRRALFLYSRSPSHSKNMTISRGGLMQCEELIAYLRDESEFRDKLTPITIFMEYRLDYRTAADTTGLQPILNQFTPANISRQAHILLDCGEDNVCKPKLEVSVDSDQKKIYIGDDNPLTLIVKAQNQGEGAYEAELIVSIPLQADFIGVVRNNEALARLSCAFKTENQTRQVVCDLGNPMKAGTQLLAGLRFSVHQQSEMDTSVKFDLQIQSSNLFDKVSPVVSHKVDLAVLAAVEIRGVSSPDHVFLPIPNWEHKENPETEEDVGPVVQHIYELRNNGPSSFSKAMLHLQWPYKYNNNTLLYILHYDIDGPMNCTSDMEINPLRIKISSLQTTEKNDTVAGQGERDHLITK
T2 sequence (P06756 891-1048 limits assumed): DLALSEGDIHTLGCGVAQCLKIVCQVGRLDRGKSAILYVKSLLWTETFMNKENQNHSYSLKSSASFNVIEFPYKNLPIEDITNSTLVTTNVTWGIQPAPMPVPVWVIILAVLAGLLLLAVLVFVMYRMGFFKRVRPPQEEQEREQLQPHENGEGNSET
T2 sequence (P05106 27-788): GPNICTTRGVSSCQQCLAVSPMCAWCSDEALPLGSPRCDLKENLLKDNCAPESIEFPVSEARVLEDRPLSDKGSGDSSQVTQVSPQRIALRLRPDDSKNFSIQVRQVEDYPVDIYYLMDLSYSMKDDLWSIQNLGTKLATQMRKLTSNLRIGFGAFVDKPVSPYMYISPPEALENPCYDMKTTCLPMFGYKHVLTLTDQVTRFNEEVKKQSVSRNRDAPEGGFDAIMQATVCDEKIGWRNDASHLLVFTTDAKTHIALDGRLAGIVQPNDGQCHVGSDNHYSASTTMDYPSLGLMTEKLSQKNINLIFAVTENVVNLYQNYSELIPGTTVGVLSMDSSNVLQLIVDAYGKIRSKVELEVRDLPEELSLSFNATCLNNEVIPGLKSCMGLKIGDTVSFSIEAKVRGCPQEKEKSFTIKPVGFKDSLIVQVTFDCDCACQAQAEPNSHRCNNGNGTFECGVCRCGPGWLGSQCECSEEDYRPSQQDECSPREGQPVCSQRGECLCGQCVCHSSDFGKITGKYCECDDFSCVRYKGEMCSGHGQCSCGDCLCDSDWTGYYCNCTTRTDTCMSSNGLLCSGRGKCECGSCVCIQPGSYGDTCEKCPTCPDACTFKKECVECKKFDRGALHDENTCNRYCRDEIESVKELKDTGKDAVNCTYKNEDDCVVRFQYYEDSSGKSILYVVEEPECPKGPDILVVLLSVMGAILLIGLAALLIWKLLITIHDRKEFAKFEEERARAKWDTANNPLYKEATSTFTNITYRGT
Source text: as §1
(§2) Selected peptides were studied for their ability to bind to the αvβ3 integrin by using integrin bound on anti-αv or anti-β3 antibody coating. Microliter wells were coated with β3 antibodies to bind specifically the αvβ3 integrin. […] The bound phage were eluted with low pH buffer and quantitated by infection of bacteria as described above. The IC50 values are means from duplicate wells. ND means not determined.

[4] = molecular target: T3, α5β1 (UniProt G3HZ55+P08648); test: cell attachment assay: α5-transfected CHO cells B2/α27 to fibronectin; format: cell-based; details: FIG. 4A, read-out: IC50, inhibition of α5β1-mediated cell attachment to fibronectin
T3 construct: expressed in transfected cells; host or cells: CHO B2/α27 clone
T3 sequence (P08648 42-894 limits assumed): as the sequence (P08648 42-894 limits assumed) above
T3 sequence (P08648 895-1049 limits assumed): as the sequence (P08648 895-1049 limits assumed) above
T3 sequence (G3HZ55 21-798): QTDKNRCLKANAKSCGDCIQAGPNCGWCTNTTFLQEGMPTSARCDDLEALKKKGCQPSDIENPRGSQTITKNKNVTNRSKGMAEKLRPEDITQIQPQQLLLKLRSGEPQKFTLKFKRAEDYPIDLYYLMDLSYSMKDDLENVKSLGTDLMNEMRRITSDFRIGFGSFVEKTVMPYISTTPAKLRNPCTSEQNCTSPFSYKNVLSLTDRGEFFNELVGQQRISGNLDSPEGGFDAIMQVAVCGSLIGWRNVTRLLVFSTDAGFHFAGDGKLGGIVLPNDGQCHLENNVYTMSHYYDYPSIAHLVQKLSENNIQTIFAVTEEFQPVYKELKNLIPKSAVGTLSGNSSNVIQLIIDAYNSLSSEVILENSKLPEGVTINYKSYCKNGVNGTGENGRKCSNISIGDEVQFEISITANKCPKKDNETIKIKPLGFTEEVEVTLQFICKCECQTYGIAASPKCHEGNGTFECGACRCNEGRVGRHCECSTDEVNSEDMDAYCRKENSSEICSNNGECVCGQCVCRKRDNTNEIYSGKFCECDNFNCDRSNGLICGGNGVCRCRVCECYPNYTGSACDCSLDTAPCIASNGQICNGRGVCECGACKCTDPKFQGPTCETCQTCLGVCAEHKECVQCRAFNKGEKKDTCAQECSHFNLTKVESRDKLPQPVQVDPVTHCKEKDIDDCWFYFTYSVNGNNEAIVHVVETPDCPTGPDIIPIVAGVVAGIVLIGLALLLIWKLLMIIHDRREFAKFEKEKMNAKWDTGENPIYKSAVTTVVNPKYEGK
Source text: (§3) CHO cell lines expressing α5β1 (the B2/α27 clone, as described in Bauer et al., J. Cell. Biol. 116:477-487 (1992)), or CHO cell lines expressing αvβ1 (B2/v7 clone, described in Zhang et al., J. Cell. Biol. 122:235-242 (1993)) were used in these assays. Cell lines expressing fibronectin-binding integrins were used to determine peptide activities against these integrins in the cell attachment assay described in Ruoslahti et al. Methods Enzymol. 144:803-831 […]. The vitronectin-binding integrins αvβ5 and αvβ3 were assayed using the cell lines HT29 and IMR90, respectively, which were described in Koivunen et al. J. Biol. Chem. 268:205-210 (1993).
(§4) Human plasma fibronectin and vitronectin were iodinated as described in Morla and Ruoslahti, J. Cell Biol. 118:421-429 (1992), which is incorporated herein by reference. […] The input ell number was approximately 2×10^4 and attachment was quantitated by staining with 0.1% amido black.
(§5) Selected peptides were tested for inhibitory activity in cell attachment assays. The assays are described in detail in the Example above. The cells used in the various experiments were: (A) α5 -transfected CHO cells B2/α27 (α5β1); αv -transfectedCHO cells 32/v7 (αvβ1); (C) HT29 cells (αvβ5); (D) IMR90 cells (αvβ3). […]

[5] = molecular target: T2, αvβ3 integrin; test: inhibition of NGRAHA-phage binding to αvβ3; details: means from duplicate wells
Source text: as §1, §2

[6] = tested on: α5β1 and αvβ3 integrins; test: competitive binding assays for relative binding affinities of peptide motifs; design: species or system human; details: for relative binding affinity class (in words): competitive binding assays
[7] = molecular target: T1, α5β1 integrin; test: fibronectin binding assay: inhibition of 125I-labeled fibronectin binding to immobilized α5β1; details: FIG. 2, FIG. 3
Procedure: Microtiter wells were coated with anti-α5 specific antibody by incubating overnight at an antibody concentration of 10 μg/ml, followed by BSA. α5β1 integrin then was bound to α5specific antibody-coated wells by incubating 300 μl of a placental extract per well in TBS buffer containing 0.1 M octylglucoside, 1 mM CaCl2, 1 mM MnCl2 and proteinase inhibitors overnight at 4° C. according to Pytela et al., Methods Enzymol 144: 475-489 (1987), which is herein incorporated by reference. Alternatively, the α5β1 integrin was directly coated on plastic as described above. The wells were extensively washed with TBS containing 0.1% NP-40™. ^125 I-labeled fibronectin (100,000 cpm per well) was incubated in the presence of competing peptides for 1 hour at 25° C. in 100 μl volume of TBS containing 0.1% NP-40™ detergent and 1 mM MnCl 2. After repeated washing, the radioactivity remaining bound was quantitated with a gamma counter.
Next, three of these four peptides were compared for efficiencies in inhibiting binding of ^125 I-labeled fibronectin to immobilized α5β1, according to the fibronectin binding assay described in the Example above. Anti-α5 antibodies were used to tether α5β1 onto microliter wells. ^125 I-labeled fibronectin was incubated in the coated wells in the presence of competing peptides for 1 hour. After washing, the radioactivity that remained bound was determined. The data represent means from duplicate wells.

[8] = molecular target: T2, αvβ3 integrin; test: binding of peptides to αvβ3 integrin bound on anti-αv or anti-β3 antibody coating
Source text: Selected peptides were studied for their ability to bind to the αvβ3 integrin by using integrin bound on anti-αv or anti-β3 antibody coating. Microliter wells were coated with β3 antibodies to bind specifically the αvβ3 integrin. The input of CRGDCL (SEQ ID NO:01)-containing phage and NGRAHA (SEQ ID NO:04)-containing phage were 2×10^12 and 5×10^12 TU per well, respectively. The bound phage were eluted with low pH buffer and quantitated by infection of bacteria as described above. The IC50 values are means from duplicate wells. ND means not determined.

[9] = molecular target: T4, αvβ5 (Homo sapiens, UniProt P06756+P18084); test: cell attachment assay: HT29 cells to vitronectin; format: cell-based
T4 construct: endogenous in cells; host or cells: HT29
Source text: as §3, §4, §5

Compound | IC50 [3] [µM] | IC50 [5] [µM] | relative binding affinity class (in words) [6] | activity in inhibiting 125I-fibronectin binding to α5β1 (in words) [7] | also measured
CC(C)C[C@H](NC(=O)[C@@H]1CSSC[C@H](NC(=O)[C@H](C)NC(=O)CN)C(=O)N[C@@H](CCCNC(=N)N)C(=O)NCC(=O)N[C@@H](CC(=O)O)C(=O)N1)C(=O)NCC(=O)N[C@@H](C)C(=O)O [GAC*RGDC*LGA] (H-GACRGDCLGA-OH; disulfide 3-7) | 0.1 | – | – | – | IC50 ([1]; 1 hour, means from duplicate wells, read-out: IC50 (half-maximal inhibitory concentration), inhibition of CRGDCL-phage binding to α5β1): 0.02 µM; IC50 [2]: ~0.5 µM; IC50 [4]: 100 µM
N=C(N)NCCC[C@H](NC(=O)CNC(=O)[C@H](CC(=O)O)NC(=O)[C@@H](N)CO)C(=O)O [SDGR, reference compound] (H-SDGR-OH) | – | > 100 | – | – | –
CRGDC (disulfide 1-5 (inferred)) [cyclic peptide motif] | – | – | High affinity | – | –
CRGDCL (disulfide 1-5 (inferred)) | – | – | High affinity | very effective | binding to αvβ3 (in words) [8]: bound; binding affinity compared with similar linear peptides, as judged by the IC50 value ([6]; both α5β1 and αvβ3 integrins): about 10 times
CVLNGRME | – | – | moderate affinities | – | –
DGRAHA [DGRAHA] | – | 100 | – | – | IC50 against αvβ5 compared with the standard GRGDSP [9]: equal to the standard GRGDSP
GATIRSVDGA | ~100 | – | – | – | –
NGRAHA [NGRAHA] | 200 | 30 | – | active | IC50 ([1]; CRGDCL-phage, α5β1, read-out: IC50 in the phage assay (unit inferred)): 30 µM
SDGRAHS (SDGRAHA) [DGRAHA with a serine residue included at the amino terminus] | – | – | – | essentially devoid of activity | –
SRRGDL [RGD peptide] | – | – | – | – | binding to αvβ3 (in words) [8]: bound
